These results are taken from patent US6140051A, “Fluorescent dibenzazole derivatives and methods related thereto” (priority 1998, dated 2000).

Structures can show the parent of a compound that is named as a salt. Where two headings read alike, the source gives them in different places. {BBTE} = label added with the BBTE phosphoramidite

For data set [1] the following is noted: background, known fluorophores; cited from earlier work.
Data set [2] is described as follows: pH dependence of fluorescence. It is filed as physicochemical. From the text: To make the phenolic fluorophore fully fluorescent at a lower pH (7-8) to achieve the best performance for some enzymatic and biological assays, some fluorophores are synthesized with electronegative substituent(s), e.g., chloride, bromide, iodide, fluoride, trifluoromethyl, --SO3 H, etc. These substituted derivatives may be analyzed at different pH's for their fluorescent efficiency. The dependence of fluorescent intensity on pH for some preferred compounds of the invention, and comparative compounds, are shown in FIG. 3. Compared to the unsubstituted compound, BBT (also shown in the graph, U.S. Pat. No. 5,424,440), the electronegatively substituted BBT derivatives, especially CIBBT, can reach their maximum fluorescence at a pH very close to physiological conditions (pH 7-8). The pH dependent characteristic change of fluorescent intensity of these fluorophores can also find applications as pH titration fluorescent indicators.

For data set [3] the following is noted: cited from earlier work.
The conditions of data set [4]: phenolic hydroxyl; cited from earlier work.
A short description of data set [5]: Fluorescence properties measured at pH about 10 in AttoPhos buffer. It is filed as physicochemical. As to the method:
* The fluorescence is measured at pH about 10 in AttoPhos buffer (JBL
Scientific, San Luis Obispo, CA).
In the following examples, NMR data were measured by a Bruker AC-300 300 MHz instrument; mass spectra were obtained on a VG Platform, Fisons Instruments; fluorescence data were obtained from a Perkin Elmer Luminescence Spectrometer, Model LS50B.

In data set [6] the target is T1, β-galactosidase (Escherichia coli, UniProt P00722).
T1 construct: purchased ICN Biomedicals, Inc. 104939; host or cells: E. Coli
T1 sequence (P00722 2-1024): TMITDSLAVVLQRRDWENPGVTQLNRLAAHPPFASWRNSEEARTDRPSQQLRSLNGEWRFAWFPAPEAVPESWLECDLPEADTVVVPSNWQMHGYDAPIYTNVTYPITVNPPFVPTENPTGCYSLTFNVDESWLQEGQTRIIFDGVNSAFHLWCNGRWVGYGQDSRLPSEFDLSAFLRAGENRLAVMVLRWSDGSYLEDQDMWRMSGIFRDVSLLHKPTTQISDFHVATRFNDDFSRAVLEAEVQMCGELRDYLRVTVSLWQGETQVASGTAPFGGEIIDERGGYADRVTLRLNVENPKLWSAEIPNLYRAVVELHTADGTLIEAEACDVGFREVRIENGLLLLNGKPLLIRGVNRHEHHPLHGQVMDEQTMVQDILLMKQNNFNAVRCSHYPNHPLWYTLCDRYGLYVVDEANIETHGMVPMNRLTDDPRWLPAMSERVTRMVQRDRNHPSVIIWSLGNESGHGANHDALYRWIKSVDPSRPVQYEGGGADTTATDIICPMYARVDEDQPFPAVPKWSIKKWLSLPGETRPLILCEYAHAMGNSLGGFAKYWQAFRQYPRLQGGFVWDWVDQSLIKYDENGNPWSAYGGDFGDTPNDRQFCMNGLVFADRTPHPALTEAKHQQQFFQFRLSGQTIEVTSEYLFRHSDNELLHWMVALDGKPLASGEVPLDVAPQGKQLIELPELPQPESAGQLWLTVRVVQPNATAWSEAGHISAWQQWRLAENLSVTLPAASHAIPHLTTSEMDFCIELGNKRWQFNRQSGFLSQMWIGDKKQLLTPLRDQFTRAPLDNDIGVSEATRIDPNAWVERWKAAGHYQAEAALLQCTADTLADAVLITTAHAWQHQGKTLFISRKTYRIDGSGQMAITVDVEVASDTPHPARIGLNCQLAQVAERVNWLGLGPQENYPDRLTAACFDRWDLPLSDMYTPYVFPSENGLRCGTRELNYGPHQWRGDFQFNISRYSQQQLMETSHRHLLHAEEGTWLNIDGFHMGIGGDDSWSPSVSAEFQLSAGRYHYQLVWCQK
Description: Enzymatic activity test, β-galactosidase. It is filed as biochemical, E. Coli. Conditions: 1 mg in 10 ml 0.1 M potassium phosphate buffer pH 7, 10 mM DTT, 1 mM MgCl2. As to the method: (2) β-Galactosidase: 1 mg BEBTESG was dissolved in 10 ml 0.1 M potassium phosphate buffer (pH 7) containing 10 mM DTT and 1 mM MgCl2 and a small quantity of β-galactosidase (Cat. No. 104939, E. Coli, ICN Biomedicals, Inc.) was added.

Data set [7] addresses T2, alkaline phosphatase (Calf Intestine) (Bos taurus, UniProt P19111).
T2 construct: purchased Calzyme, San Luis Obispo, Calif; host or cells: calf intestine
Briefly: Enzymatic activity test, alkaline phosphatase. It is filed as biochemical. Conditions: 1 mg in 10 ml AttoPhos buffer. The protocol:
(1) Alkaline Phosphatase: 1 mg BEBTP was dissolved in 10 ml AttoPhos buffer (JBL Scientific, San Luis Obispo, Calif.). A small quantity of alkaline phosphatase (Calf Intestine, Calzyme, San Luis Obispo, Calif.) was added.

The test system of data set [8] is Esterase from Porcine Liver. Briefly: Esterase activity towards BBT acyl derivatives. It is filed as biochemical. The settings on record: 100 mM Tris HCl pH 8.0; Ex 440 nm, Em 550 nm; FIG. 4. As to the method: Buffer: 100 mM Tris. HCl, pH 8.0.
Substrate Stock Solution: 2 mM acyl BBT dioxane solution.
Enzymes: All enzymes were from Sigma: Esterase from Porcine Liver(E3 128); Lipase from Pseudomonas species (L9518); Lipase from Candida cylindracea (L1754). Dilute the enzyme by the buffer to the desired concentration before use.
Instrument: Squoia-Tumer Fluorometer, Model 450. Excitation at 440 nm and Emission at 550 nm.
1. Set the Fluorometer Gain to 200.
2. Set the Fluorometer Zero to 0 with the Tris buffer.
3. Set the Fluorometer Span to 1000 using JBL 10 ng BBT (FEY) standard solution.
4. Pipette 980 μl buffer to a glass test tube (Baxter, Cat. No. T1290-3).
5. Add 10 μl substrate stock solution and mix well.
6. Measure and record the blank reading.
7. Add 10 μl enzyme solution.
8. Take fluorescence reading every one minute for 3 minutes and record.
9. Calculate the fluorescence unit change (FU/min) by subtracting the first-minute reading from the second-minute reading.
10. Plot FU/min vs. enzyme concentration, u/L (FIG. 4 and FIG. 5).

Data set [9] relates to Lipase from Pseudomonas species. Briefly: Lipase activity towards BBT acyl derivatives. The format is biochemical. The settings on record: 100 mM Tris HCl pH 8.0; Ex 440 nm, Em 550 nm; FIG. 5; text says 'lipases'. As to the method: (3) Esterase and Lipase: Buffer: 100 mM Tris. HCl, pH 8.0. Substrate Stock Solution: 2 mM acyl BBT dioxane solution. Enzymes: All enzymes were from Sigma: Esterase from Porcine Liver(E3 128); Lipase from Pseudomonas species ([…]); Lipase from Candida cylindracea ([…]). Dilute the enzyme by the buffer to the desired concentration before use. Instrument: Squoia-Tumer Fluorometer, Model 450. Excitation at 440 nm and Emission at 550 nm. Procedure: 1. Set the Fluorometer Gain to 200. 2. Set the Fluorometer Zero to 0 with the Tris buffer. 3. Set the Fluorometer Span to 1000 using JBL 10 ng BBT (FEY) standard solution. 4. Pipette 980 μl buffer to a glass test tube (Baxter, Cat. No. T1290-3). 5. Add 10 μl substrate stock solution and mix well. 6. Measure and record the blank reading. 7. Add 10 μl enzyme solution. 8. Take fluorescence reading every one minute for 3 minutes and record. 9. Calculate the fluorescence unit change (FU/min) by subtracting the first-minute reading from the second-minute reading. 10. Plot FU/min vs. enzyme concentration, u/L (FIG. 4 and FIG. 5).

Data set [10] is described as follows: Fluorescence of labeled oligonucleotide on DNA electrophoresis gel. Conditions: versus non-labeled oligonucleotide. From the text: (4) Fluorescence: The labeled BBTE-[…] (SEQ ID NO: 1) was separated on a standard DNA electrophoresis gel, along with the non-labeled […] (SEQ ID NO: 1).

T2 sequence (P19111 20-506 limits assumed): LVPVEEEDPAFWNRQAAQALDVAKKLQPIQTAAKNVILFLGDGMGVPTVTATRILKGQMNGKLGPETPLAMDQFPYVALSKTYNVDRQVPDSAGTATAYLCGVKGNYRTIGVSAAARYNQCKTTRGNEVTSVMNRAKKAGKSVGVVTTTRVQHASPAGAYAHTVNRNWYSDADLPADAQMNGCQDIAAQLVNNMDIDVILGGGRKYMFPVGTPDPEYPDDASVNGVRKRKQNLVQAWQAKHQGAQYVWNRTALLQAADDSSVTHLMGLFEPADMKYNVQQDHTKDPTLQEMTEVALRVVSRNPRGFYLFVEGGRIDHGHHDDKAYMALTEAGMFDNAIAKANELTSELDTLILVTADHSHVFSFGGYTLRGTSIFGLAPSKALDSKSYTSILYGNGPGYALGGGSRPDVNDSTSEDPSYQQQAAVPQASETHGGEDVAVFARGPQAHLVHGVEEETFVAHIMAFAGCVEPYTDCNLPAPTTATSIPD

For `Oc1ccc2nc(-c3ccccc3)oc2c1` [2-Phenyl-6-hydroxybenzoxazole], in [1], the “Stokes Shift” value is 110 nm, the “λEM (wavelength of maximum emission)” value is on record as 460 nm and the “λEX (wavelength of maximum excitation)” value is recorded as 370 nm.

For the molecule `Cc1cc(=O)oc2cc(O)ccc12` [4-Methylumbelliferone], in data set [1], the “Stokes Shift” value is 82 nm, the “λEM (wavelength of maximum emission)” value was 449 nm and the “λEX (wavelength of maximum excitation)” value is 367 nm.

One may read the pKa as the negative logarithm of the acid dissociation constant. Take `Oc1ccc2nc(-c3nc4ccccc4s3)sc2c1` [BBT, 2'-(2-Benzothiazolyl)-6'-hydroxy-benzothiazole]: the “pH at which the compound fully fluoresces” value in data set [2] is listed as 9-10 pH. Moreover, in data set [3] (pH 10.3 (ALP assay)), the “ionization state (fluorescence)” value is “fully ionized”. Moreover, the “ionization state (fluorescence)” value in [3] (pH range of 6.0 to 8.0) is on record as “only partially ionized”. Moreover, in data set [1], the “Stokes Shift” value is 142 nm, the “λEM (wavelength of maximum emission)” value was 561 nm and the “λEX (wavelength of maximum excitation)” value was 419 nm. Further, the pKa in data set [4] is 8.5.

In the case of `O=C(O)Cc1ccc2nc(-c3nc4ccc(O)cc4s3)sc2c1` [BBTAA, 2'-(6-Hydroxybenzothiazol-2-yl)-benzothiazole-6'-acetic acid], in [5] (Table 1), the EM came out at 549 nm, the EX came out at 430 nm and the “Stokes Shift” value is 119 nm.

With `O=C(Cc1ccc2nc(-c3nc4ccc(O)cc4s3)sc2c1)NCCS(=O)(=O)O` [BBTAAT], in data set [5] (Table 1), the EM was determined as 548 nm, the EX is reported as 430 nm and the “Stokes Shift” value is given as 118 nm.

In the case of `OCCc1ccc2nc(-c3nc4ccc(O)cc4s3)sc2c1` [BBTE], in [5] (Table 1), the EM was found to be 550 nm, the EX is 422 nm and the “Stokes Shift” value came to 128 nm.

In the case of `Oc1ccc2nc(/C=C/c3nc4ccccc4o3)sc2c1` [BEBO, 2'-(2-benzoxazolylethenyl)-6'-hydroxybenzothiazole], in data set [5] (Table 2), the EM is 604 nm, the EX came to 438 nm and the “Stokes Shift” value was 166 nm.

Turning to `Oc1ccc2nc(/C=C/c3nc4ccccc4s3)sc2c1` [BEBT, 2'-(2-benzothiazolylethenyl)-6'-hydroxybenzothiazole], in data set [5] (Table 2), the EM is 620 nm, the EX came out at 440 nm and the “Stokes Shift” value amounted to 180 nm.

Regarding `O=S(=O)(O)CCc1ccc2nc(/C=C/c3nc4ccc(O[C@@H]5O[C@H](CO)[C@H](O)[C@H](O)[C@H]5O)cc4s3)sc2c1` [BEBTESG, 2'-((6-Sulfoethyl-2-benzothiazolyl)ethenyl)-6'-hydroxybenzothiazole β-D-Galactoside], the “fluorescence on hydrolysis by β-galactosidase” value in [6] was “orange red fluorescence was quickly developed”.

As for `O=P(O)(O)Oc1ccc2nc(/C=C/c3nc4ccccc4s3)sc2c1` [BEBTP, 2'-(2-Benzothiazolylethenyl)-6'-hydroxybenzothiazole phosphate di(2-amino-2-methyl 1,3-propanediol) salt], the “fluorescence on hydrolysis by alkaline phosphatase” value in data set [7] was “orange red fluorescence was quickly developed”.

Turning to `Oc1ccc2nc(-c3nc4ccccc4s3)sc2c1Cl` [CIBBT, 2'-(Benzothiazol-2-yl)-7'-chloro-6'-hydroxybenzothiazole], the “pH at which maximum fluorescence is reached” value in data set [2] (FIG. 3) is listed as 7-8 pH. For the same molecule, in data set [5] (Table 1), the EM was determined as 550 nm, the EX turned out to be 435 nm and the “Stokes Shift” value is on record as 115 nm.

Consider `O=C(O)Cc1ccc2nc(-c3nc4ccc(O)c(Cl)c4s3)sc2c1` [CIBBTAA, 2'-(7-Chloro-6-hydroxybenzothiazol-2-yl)-benzothiazole-6'-acetic acid], for which, in data set [5] (Table 1), the EM turned out to be 545 nm, the EX was 437 nm and the “Stokes Shift” value is recorded as 108 nm.

As to `CCN1C(=CC=Cc2oc3ccccc3[n+]2CCCCCC(=O)[O-])Oc2ccccc21` [Cy2], in data set [1], the “Stokes Shift” value is 18 nm, the “λEM (wavelength of maximum emission)” value is given as 506 nm and the “λEX (wavelength of maximum excitation)” value is 489 nm.

For `Oc1ccc2nc(-c3nc4ccccc4s3)sc2c1F` [FBBT, 2'-(2-Benzothiazolyl)-7'-fluoro-6'-hydroxybenzothiazole], in data set [5] (Table 1), the EM was 552 nm, the EX amounted to 423 nm and the “Stokes Shift” value turned out to be 129 nm.

As to `O=C1OC2(c3ccc(O)cc3Oc3cc(O)ccc32)c2ccccc21` [Fluorescein], in data set [1], the “Stokes Shift” value is 28 nm, the “λEM (wavelength of maximum emission)” value is on record as 520 nm and the “λEX (wavelength of maximum excitation)” value is listed as 492 nm.

With `CCC(=O)Oc1ccc2nc(-c3nc4ccccc4s3)sc2c1` [Propionyl BBT, 2'-(2-Benzothiazolyl)-6'-hydroxybenzothiazole Propionate], the “substrate activity for porcine liver esterase” value in data set [8] is “very effective substrate”. The “substrate activity for lipases” value in data set [9] is reported as “very poor substrate”.

For the molecule `CCN(CC)c1ccc2c(-c3ccccc3C(=O)O)c3ccc(=[N+](CC)CC)cc-3oc2c1` [Rhodamine], in data set [1], the “Stokes Shift” value is listed as 35 nm, the “λEM (wavelength of maximum emission)” value is listed as 575 nm and the “λEX (wavelength of maximum excitation)” value is reported as 540 nm.

Turning to `O=S(=O)(O)c1c(O)ccc2nc(-c3nc4ccccc4s3)sc12` [SBBT], in data set [5] (Table 1), the EM amounted to 538 nm, the EX was 420 nm and the “Stokes Shift” value was determined as 118 nm.

In the case of `CCCCCCCC/C=C\CCCCCCCC(=O)Oc1ccc2nc(-c3nc4ccccc4s3)sc2c1` [oleoyl BBT, 2'-(2-Benzothiazolyl)-6'-hydroxybenzothiazole Oleate], the “substrate activity for porcine liver esterase” value in [8] is given as “low activity”. Moreover, in [9], the “substrate activity for lipases” value is “high activity”.

`Oc1ccc2nc(/C=C/c3nc4c(ccc5ccccc54)o3)sc2c1` [α-BENO]: in data set [5] (Table 2), the EM is 585 nm, the EX is recorded as 432 nm and the “Stokes Shift” value came out at 153 nm.

For the molecule `Oc1ccc2nc(/C=C/c3nc4c(ccc5ccccc54)s3)sc2c1` [α-BENT], in [5] (Table 2), the EM was found to be 624 nm, the EX was found to be 443 nm and the “Stokes Shift” value is given as 181 nm.

`Oc1ccc2nc(/C=C/c3nc4ccc5ccccc5c4o3)sc2c1` [β-BENO]: in data set [5] (Table 2), the EM is given as 602 nm, the EX is on record as 443 nm and the “Stokes Shift” value came to 159 nm.

Regarding “BBTE-TCTCCCAGCGTGCGCCAT: oligonucleotide (SEQ ID NO: 1) labeled at the 5'-end with the BBTE phosphoramidite (5' {BBTE}, sugars by position and backbone not given here)”, the “fluorescence on DNA electrophoresis gel” value in [10] is listed as “strong yellow fluorescent band”.
